In patent US9713613B2, “Methods and compositions for the treatment of cancer and related hyperproliferative disorders” (priority 2007, dated 2017):

Tests used:
[1] = test system: endogenous SREBPs; assay: Luciferase reporter assay (pSRE-Luc, normalized by β-gal) in HEK293 cells; format: cell-based, human; design: Luc/Gal: dose or concentration left out as unconfirmed
Protocol: On day 0, HEK293 cells were plated out in triplicate at a density of 5×10^3/well onto a 96-well plate in a Dulbecco's modified Eagle's medium with 10% fetal bovine serum, 100 units/mL penicillin, and 100 μg/mL streptomycin sulfate. On day 2, the cells were transiently co-transfected with the following plasmids by using Lipofectamine reagent (Invitrogen): 0.4 μg/well pSRE-Luc (an SRE-1-driven luciferase reporter construct; Hua et al., 1995 J Biol Chem 270, 29422-7), and 0.1 μg/well a b-gal reporter in which the expression of β-gal is controlled by an actin promoter in a final volume of […]. After incubation for 5 hrs at 37° C., the cells were washed with phosphate-buffered saline and then incubated in 100 μl of Dulbecco's modified Eagle's medium with 10% lipid-depleted serum, […] penicillin, and 100 μg/mL streptomycin sulfate in the absence or presence of fatostatin A. After 20 hrs of incubation, the cells in each well were lysed with 20 μL of 1× Reporter Lysis Buffer (Promega), and aliquots were used for measurement of luciferase (10 μL) and β-galactosidase (10 μL) activities. For luciferase assay, photon production was detected as counts per second in a Wallac 1420 ARVOsx multilabel counter (PerkinElmer). For β-galactosidase assays, hydrolysis of O-nitrophenyl-β-D-galactosidase was measured after incubation for 0.5 h at 37° C. by a microplate reader at the wave length of 405 nm (Tecan). The luciferase activity (counts per second) was normalized by the activity of β-galactosidase (OD units). For overexpression of the N-terminal matured form of SREBP-1c, pCMV-SREBP-1c (1-436) was co-transfected with pSRE-Luc. pSRE-Luc and pCMV-SREBP-1c (1-436) were provided by J. L. Goldstein (University of Texas Southwestern Medical Center). […]

[2] = test system: 3T3-L1 cells; assay: adipogenesis assay (formation of oil droplets); format: cell-based, mouse; design: key: +: The analogues that completely inhibited the formation of oil droplets in cells were scored to be adipogenesis-inhibiting analogues; conditions: formation of oil droplets in cells
Protocol: The adipogenesis assay was performed as described (Choi et al., 2003).

[3] = entries 1-18 (FIG. 15), none = 9.4426
[4] = entries 1, 19-34 (FIG. 16), None = 15.0759
[5] = entries 1, 35-39 (FIG. 17), None = 18
[6] = entries 1, 40-44 (FIG. 17), None = 8.2181

`CCCc1cc(-c2nc(-c3ccc(Br)cc3)cs2)ccn1` [Compound 2, 4-(4-(4-bromophenyl)thiazol-2-yl)-2-propylpyridine] showed a Luc/Gal [1, 3] of 4.5130.
In the case of `CCCc1cc(-c2nc(-c3ccccc3)cs2)ccn1` [Compound 3, 4-(4-phenylthiazol-2-yl)-2-propylpyridine], the Luc/Gal [1, 3] is reported as 7.4643.
In the case of `CCCc1cc(-c2nc(-c3ccc(Cl)cc3)cs2)ccn1` [Compound 4, 4-(4-(4-chlorophenyl)thiazol-2-yl)-2-propylpyridine], the Luc/Gal [1, 3] is reported as 6.3808.
For `CCc1ccc(-c2csc(-c3ccncc3)n2)cc1` [Compound 5, 4-(4-(4-ethylphenyl)thiazol-2-yl)pyridine], the Luc/Gal [1, 3] was 7.6190.
With `Cc1ccc(-c2csc(-c3ccncc3)n2)cc1` [Compound 6, 4-(4-p-tolylthiazol-2-yl)pyridine] the Luc/Gal [1, 3] was 13.4689.
`COc1ccc(-c2csc(-c3ccncc3)n2)cc1` [Compound 7, 4-(4-(4-methoxyphenyl)thiazol-2-yl)pyridine] was tested, and the Luc/Gal [1, 3] was 18.3174.
With `CCCc1cc(-c2nc(-c3ccc(OC(=O)c4ccccc4)cc3)cs2)ccn1` [Compound 8, 4-(2-(2-propylpyridin-4-yl)thiazol-4-yl)phenylbenzoate] the Luc/Gal [1, 3] was 7.7585 and the Inhibition of adipogenesis [2] was “+”.
For `CCCc1cc(-c2nc(-c3ccc(O)cc3)cs2)ccn1` [Compound 9, 4-(2-(2-propylpyridin-4-yl)thiazol-4-yl)phenol], the Luc/Gal [1, 3] was 14.5234 and the Inhibition of adipogenesis [2] was “+”.
`CCCc1cc(-c2nc(-c3ccc(OCC(=O)OC)cc3)cs2)ccn1` [Compound 10, methyl 2-(4-(2-(2-propylpyridin-4-yl)thiazol-4-yl)phenoxy)acetate] gave a Luc/Gal [1, 3] of 10.7717.
`COc1ccc(-c2nc(-c3ccc(Cl)cc3)cs2)cc1OC` [Compound 12, 4-(4-chlorophenyl)-2-(3,4-dimethoxyphenyl)thiazole] gave a Luc/Gal [1, 3] of 5.9214.
`CCCc1cc(-c2nc(-c3ccc(Cl)c(Cl)c3)cs2)ccn1` [Compound 13, 4-(4-(3,4-dichlorophenyl)thiazol-2-yl)-2-propylpyridine] was tested, and the Luc/Gal [1, 3] was 5.2391.
Work on `CCCc1cc(-c2nc(-c3ccc(F)cc3)cs2)ccn1` [Compound 14, 4-(4-(4-fluorophenyl)thiazol-2-yl)-2-propylpyridine] yielded a Luc/Gal [1, 3] of 9.6605.
`CCCc1cc(-c2nc(-c3ccc(F)cc3F)cs2)ccn1` [Compound 15, 4-(4-(2,4-difluorophenyl)thiazol-2-yl)-2-propylpyridine] was tested, and the Luc/Gal [1, 3] was 10.8383.
In the case of `CCCc1cc(-c2nc(-c3ccc(N)cc3)cs2)ccn1` [Compound 16, 4-(2-(2-propylpyridin-4-yl)thiazol-4-yl)benzenamine], the Luc/Gal [1, 3] is reported as 10.3338 and the Inhibition of adipogenesis [2] is reported as “+”.
For `CCCc1cc(-c2nc(-c3ccc(NC(C)=O)cc3)cs2)ccn1` [Compound 18, N-(4-(2-(2-propylpyridin-4-yl)thiazol-4-yl)phenyl)acetamide], the Luc/Gal [1, 3] was 11.7685 and the Inhibition of adipogenesis [2] was “+”.
`CCCc1cc(-c2nc(-c3ccc(NCc4ccccc4)cc3)cs2)ccn1` [Compound 20, N-benzyl-4-(2-(2-propylpyridin-4-yl)thiazol-4-yl)benzenamine] was tested, and the Luc/Gal [1, 4] was 5.6748 and the Inhibition of adipogenesis [2] was “+”.
For `CCCc1cc(-c2nc(-c3ccc(NCC4CC4)cc3)cs2)ccn1` [Compound 21, N-(cyclopropylmethyl)-4-(2-(2-propylpyridin-4-yl)thiazol-4-yl)benzenamine], the Luc/Gal [1, 4] was 6.4378 and the Inhibition of adipogenesis [2] was “+”.
Compound `CCCc1cc(-c2nc(-c3ccc(Br)cc3)c(C(=O)O)s2)ccn1` [Compound 22, 4-(4-bromophenyl)-2-(2-propylpyridin-4-yl)thiazole-5-carboxylic acid] has a Luc/Gal [1, 4] of 21.5911.
With `CCCc1cc(-c2nc(-c3ccc(Br)cc3)c(C(=O)OC)s2)ccn1` [Compound 23, methyl 4-(4-bromophenyl)-2-(2-propylpyridin-4-yl)thiazole-5-carboxylate] the Luc/Gal [1, 4] was 8.1137 and the Inhibition of adipogenesis [2] was “+”.
`CCCc1cc(-c2nc(-c3ccc(OC)cc3)cs2)ccn1` [Compound 24, 4-(4-(4-methoxyphenyl)thiazol-2-yl)-2-propylpyridine] gave a Luc/Gal [1, 4] of 11.0367.
Work on `CCCc1cc(-c2nc(-c3cccc(OC)c3)cs2)ccn1` [Compound 25, 4-(4-(3-methoxyphenyl)thiazol-2-yl)-2-propylpyridine] yielded a Luc/Gal [1, 4] of 7.8536.
For `CCCc1cc(-c2nc(-c3ccccc3OC)cs2)ccn1` [Compound 26, 4-(4-(2-methoxyphenyl)thiazol-2-yl)-2-propylpyridine], the Luc/Gal [1, 4] was 8.3046 and the Inhibition of adipogenesis [2] was “+”.
With `Cc1ccc(-c2csc(-c3ccccc3)n2)cc1` [Compound 27, 2-phenyl-4-p-tolylthiazole] the Luc/Gal [1, 4] was 13.8222.
With `CCCc1cc(-c2nc(-c3cccc(O)c3)cs2)ccn1` [Compound 28, 3-(2-(2-propylpyridin-4-yl)thiazol-4-yl)phenol] the Luc/Gal [1, 4] was 12.7791.
In the case of `CCCc1cc(-c2nc(-c3ccccc3O)cs2)ccn1` [Compound 29, 2-(2-(2-propylpyridin-4-yl)thiazol-4-yl)phenol], the Luc/Gal [1, 4] is reported as 8.2379.
In the case of `CCCc1cc(-c2nc(-c3ccc(Br)cc3)c(C(=O)NC(C)C)s2)ccn1` [Compound 30, 4-(4-bromophenyl)-N-isopropyl-2-(2-propylpyridin-4-yl)thiazole-5-carboxamide], the Luc/Gal [1, 4] is reported as 16.0226.
Work on `Clc1ccc(-c2csc(-c3ccncc3)n2)cc1` [Compound 31, 4-(4-(4-chlorophenyl)thiazol-2-yl)pyridine] yielded a Luc/Gal [1, 4] of 16.9971.
`CCc1cc(-c2nc(-c3ccc(Cl)cc3)cs2)ccn1` [Compound 32, 4-(4-(4-chlorophenyl)thiazol-2-yl)-2-ethylpyridine] was tested, and the Luc/Gal [1, 4] was 9.5798.
`Clc1ccc(-c2csc(-c3ccccc3)n2)cc1` [Compound 33, 4-(4-chlorophenyl)-2-phenylthiazole] showed a Luc/Gal [1, 4] of 17.8175.
In the case of `CCCc1cc(-c2nc(-c3cccs3)cs2)ccn1` [Compound 34, 2-propyl-4-(4-(thiophen-2-yl)thiazol-2-yl)pyridine], the Luc/Gal [1, 4] is reported as 12.1593 and the Inhibition of adipogenesis [2] is reported as “+”.
For `CCCc1cc(-c2ccc(-c3ccc(C)cc3)cc2)ccn1` [Compound 35], the Luc/Gal [1, 5] was 11.36 and the Inhibition of adipogenesis [2] was “+”.
`CCCc1cc(-c2nc(-c3ccc(C)cc3)c(C(=O)O)s2)ccn1` [Compound 36, 2-(2-propylpyridin-4-yl)-4-p-tolylthiazole-5-carboxylic acid] was tested, and the Luc/Gal [1, 5] was 18.99.
`CCc1cc(-c2nc(-c3ccc(C)cc3)cs2)ccn1` [Compound 37, 2-ethyl-4-(4-p-tolylthiazol-2-yl)pyridine] showed a Luc/Gal [1, 5] of 9.87.
With `CCCc1cc(-c2nc(-c3ccccc3)c(C(=O)O)s2)ccn1` [Compound 38, 4-phenyl-2-(2-propylpyridin-4-yl)thiazole-5-carboxylic acid] the Luc/Gal [1, 5] was 22.66.
Compound `CCCc1cc(-c2nc(-c3ccc(C)cc3)c(C(=O)OC)s2)ccn1` [Compound 39, methyl 2-(2-propylpyridin-4-yl)-4-p-tolylthiazole-5-carboxylate] has a Luc/Gal [1, 5] of 14.93.
In the case of `CCCc1cc(-c2nc(-c3ccc(NC(=O)OC(C)(C)C)cc3)cs2)ccn1` [Compound 40, tert-butyl 4-(2-(2-propylpyridin-4-yl)thiazol-4-yl)phenylcarbamate], the Luc/Gal [1, 6] is reported as 2.4390.
`CCCc1cc(-c2nc(-c3ccc(NC4CCCCC4)cc3)cs2)ccn1` [Compound 41, N-cyclohexyl-4-(2-(2-propylpyridin-4-yl)thiazol-4-yl)benzenamine] was tested, and the Luc/Gal [1, 6] was 6.5229.
Compound `CCCc1cc(-c2nc(-c3ccc(NS(=O)(=O)c4ccc(C)cc4)cc3)cs2)ccn1` [Compound 42, 4-(2-(2-propylpyridin-4-yl)thiazol-4-yl)-N-tosylbenzenamine] has a Luc/Gal [1, 6] of 3.3957.
Compound `CCCc1cc(-c2nc(-c3ccc(NS(=O)(=O)c4cccc5cccnc45)cc3)cs2)ccn1` [Compound 43, N-(4-(2-(2-propylpyridin-4-yl)thiazol-4-yl)phenyl)-8-quinolinesulfonamide] has a Luc/Gal [1, 6] of 2.8506.
Compound `CCCc1cc(-c2nc(-c3ccc(NS(=O)(=O)c4cccs4)cc3)cs2)ccn1` [Compound 44, N-(4-(2-(2-propylpyridin-4-yl)thiazol-4-yl)phenyl)-2-thiophenesulfonamide] has a Luc/Gal [1, 6] of 1.8538.
